Results reported in paper PMC12508949, “Evaluation of the Pharmacokinetic Interactions of Maytenus ilicifolia Mart. ex Reiss Extracts on Drug Intestinal Permeability and Hepatic Metabolism” (ACS Omega, 2025).

Legend:
[1] = test system: CYP3A enzyme; set-up: method as in previous studies; conditions: ref previous studies; cited from earlier work
[2] = molecular target: CYP3A4 (Homo sapiens, UniProt P08684); assay: CYP3A4 inhibition in human liver microsomes (midazolam 1-hydroxylation, nifedipine oxidation); conditions: extracts 2 mg/mL, secondary metabolites 100 μM
[3] = molecular target: T1, P-gp (Homo sapiens, UniProt P08183); conditions: Caco-2; epicatechin 100 μM; reduced P app(B–A) and efflux of fexofenadine
[4] = molecular target: T1, P-gp; set-up: determining P-gp activity, using a Caco-2 cell model; host or cells: Caco-2 cells; method as in Kitagawa et al.; conditions: KB-C2 cells; ref Kitagawa et al.; cited from earlier work
[5] = test system: CYP3A4; set-up: method as in Kimura et al.; conditions: ref Kimura et al., cited from earlier work; for inhibition of 6β-hydroxylation of testosterone: concentration of 100 μM; for IC50: read-out: IC50, 6β-hydroxylation of testosterone

Chain of CYP3A4 (Homo sapiens, UniProt P08684) (P08684 whole entry): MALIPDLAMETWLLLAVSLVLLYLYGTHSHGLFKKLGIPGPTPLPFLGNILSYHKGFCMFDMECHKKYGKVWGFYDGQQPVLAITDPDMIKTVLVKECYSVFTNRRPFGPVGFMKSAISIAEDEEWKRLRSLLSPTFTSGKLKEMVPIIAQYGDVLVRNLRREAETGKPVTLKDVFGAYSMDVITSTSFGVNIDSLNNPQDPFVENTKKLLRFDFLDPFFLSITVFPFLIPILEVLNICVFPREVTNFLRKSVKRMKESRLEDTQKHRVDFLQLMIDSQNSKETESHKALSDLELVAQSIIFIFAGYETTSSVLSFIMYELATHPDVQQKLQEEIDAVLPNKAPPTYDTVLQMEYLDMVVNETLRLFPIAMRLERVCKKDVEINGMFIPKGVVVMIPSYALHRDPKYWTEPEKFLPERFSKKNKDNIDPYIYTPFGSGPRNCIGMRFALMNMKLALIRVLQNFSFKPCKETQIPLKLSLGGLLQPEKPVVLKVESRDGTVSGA
T1 sequence (P08183 whole entry): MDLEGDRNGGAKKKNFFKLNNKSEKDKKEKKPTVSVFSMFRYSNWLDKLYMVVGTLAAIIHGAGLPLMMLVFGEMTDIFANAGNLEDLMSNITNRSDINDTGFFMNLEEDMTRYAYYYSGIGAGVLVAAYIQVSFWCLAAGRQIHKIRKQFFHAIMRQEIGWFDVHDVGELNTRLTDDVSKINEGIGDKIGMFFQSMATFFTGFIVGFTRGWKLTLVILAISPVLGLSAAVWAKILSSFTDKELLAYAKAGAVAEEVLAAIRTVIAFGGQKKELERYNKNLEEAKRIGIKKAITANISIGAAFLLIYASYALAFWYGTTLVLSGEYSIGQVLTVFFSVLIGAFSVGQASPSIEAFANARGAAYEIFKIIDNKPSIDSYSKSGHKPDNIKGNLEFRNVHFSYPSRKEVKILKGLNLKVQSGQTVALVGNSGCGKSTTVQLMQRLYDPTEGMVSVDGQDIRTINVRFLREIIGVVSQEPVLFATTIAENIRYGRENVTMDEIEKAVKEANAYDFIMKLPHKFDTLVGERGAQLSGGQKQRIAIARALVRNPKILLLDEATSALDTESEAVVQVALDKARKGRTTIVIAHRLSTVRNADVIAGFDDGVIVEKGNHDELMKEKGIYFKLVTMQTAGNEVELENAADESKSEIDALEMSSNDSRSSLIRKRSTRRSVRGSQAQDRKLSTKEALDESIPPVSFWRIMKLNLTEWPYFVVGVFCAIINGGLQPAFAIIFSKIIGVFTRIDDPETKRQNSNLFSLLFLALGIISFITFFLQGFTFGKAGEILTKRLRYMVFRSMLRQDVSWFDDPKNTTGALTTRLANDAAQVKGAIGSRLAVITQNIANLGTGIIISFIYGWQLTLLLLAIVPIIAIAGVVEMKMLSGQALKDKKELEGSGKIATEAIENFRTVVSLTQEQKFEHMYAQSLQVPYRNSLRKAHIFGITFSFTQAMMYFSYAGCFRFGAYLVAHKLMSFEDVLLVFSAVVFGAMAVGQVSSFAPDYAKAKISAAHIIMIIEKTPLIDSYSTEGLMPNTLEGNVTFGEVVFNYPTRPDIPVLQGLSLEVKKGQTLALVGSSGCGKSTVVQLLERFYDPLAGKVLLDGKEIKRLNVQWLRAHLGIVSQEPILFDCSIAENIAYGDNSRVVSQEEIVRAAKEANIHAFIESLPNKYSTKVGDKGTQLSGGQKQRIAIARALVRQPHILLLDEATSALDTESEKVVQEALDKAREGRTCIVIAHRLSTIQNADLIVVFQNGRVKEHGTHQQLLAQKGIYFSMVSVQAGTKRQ

| Compound | inhibitory activity on the CYP3A enzyme, testosterone 6β-hydroxylation [1] | inhibition of 6β-hydroxylation of testosterone [5] [%] | IC50 [5] [µM] | also measured |
| --- | --- | --- | --- | --- |
| O.Oc1cc(O)c2c(c1)O[C@H](c1ccc(O)c(O)c1)[C@@H](O)C2 [catechin] | higher than 50% |  |  | remaining activity (%RA) of CYP3A4, substrate reaction not specified [2]: higher than 50% |
| Oc1cc(O)c2c(c1)O[C@H](c1ccc(O)c(O)c1)[C@H](O)C2 [epicatechin] | 50% |  |  | P-gp inhibitory potential (in words) [3]: slight inhibitory potential; effect on P-gp activity (in words) [4]: did not observe any effect |
| O=c1c(O)c(-c2ccc(O)cc2)oc2cc(O)cc(O)c12 [kaempferol] |  | 100 | 8.8 |  |
| O=c1c(O)c(-c2ccc(O)c(O)c2)oc2cc(O)cc(O)c12 [quercetin] |  | […] | […] | remaining activity (%RA), midazolam 1-hydroxylation ([2]; negative control = 100%): markedly inhibited; remaining activity (%RA), nifedipine oxidation ([2]; negative control = 100%): markedly inhibited |
